Experiments:
[1] = Chemiluminescence measurement of anti-TSH antibody conjugate of acridinium ester 3a with cationic surfactants; conditions: for Observed enhancement (fold) of chemiluminescence: no surfactant control = 1; for Observed acceleration of emission kinetics (time to >90% emission): without surfactant 57.5 seconds; for accelerated emission kinetics: as shown in Table 1b, from 57.5 seconds without surfactant
Experimental: (§1) To study the impact of degradable cationic surfactants on acridinium ester chemiluminescence, two exemplary cationic surfactants containing cleavable linkages (FIG. 2A) were selected. The synthetic schemes for the two surfactants are illustrated in FIGS. 3-4 and described in Examples 1 and 2 above. Both surfactants were dissolved in Reagent 1 (0.1 M nitric acid containing 0.5% hydrogen peroxide) at five times their reported CMCs in water. CTAC dissolved in Reagent 2 (0.25 M NaOH) was used as the control surfactant. The two carbonate and amide cationic surfactants (FIG. 2A) were dissolved in Reagent 1 to preserve stability, especially during long term storage (Stjerndahl and Holmberg, J. Colloid and Interface Sci., 2005, 291, 570-576). Three acridinium esters (FIG. 2B, compounds 3a, 3b and 3c) were used to make protein conjugates of an anti-TSH antibody (TS=thyroid stimulating hormone) as described in the literature (Natrajan et al, Org. Biomol. Chem., 2011, 9, 5092-5103; Natrajan et al, Org. Biomol. Chem., 2012, 10, 3432-3447). The conjugates contained approximately 5 labels. The conjugates were stored at 4° C. in buffer and chemiluminescence from each conjugate was measured in the absence of surfactant and in the presence of CTAC as well as cationic surfactants 1 and 2 (Tables 1-3, FIGS. 5-7). The ability of each surfactant to (a) increase total light output and (b) accelerate emission kinetics was evaluated over a period of 80 days.
(§2) Chemiluminescence of anti-TSH antibody conjugates of acridinium esters 3a, 3b and 3c (FIG. 2B) was measured on an Autolumat LB953 Plus luininometer from Behold Technologies. The conjugates, ˜2 mg/mL containing approximately five labels, were serially diluted 10^5-fold for chemiluminescence measurements in an aqueous buffer of 10 mM disodium hydrogen phosphate, 0.15 M NaCl and 8 mM sodium azide and 0.015 mM bovine serum albumin (BSA), pH 8.0. A 0.010 mL volume of each diluted acridinium ester sample was dispensed into the bottom of a cuvette. Cuvettes were placed into the primed LB953 and the chemiluminescence reaction was initiated with the sequential addition of 0.3 mL of Reagent 1, a solution of 0.5% hydrogen peroxide in 0.1 M nitric acid followed by the addition of 0.3 mL of Reagent 2, a solution of 0.25 M sodium hydroxide. For measurements in the presence of CTAC, the surfactant (7 mM) was included in Reagent 2. For measurements in the presence of the cationic amide surfactant 1 or the cationic carbonate surfactant 2, each surfactant was dissolved in Reagent 1 at 3.2 mM (surfactant 1) and 2.15 mM (surfactant 2). Each chemiluminescence flash curve was measured in 240 intervals of 0.5 second (120 seconds total time). Each chemiluminescence reaction was carried out a minimum of three times, averaged and converted to a percentage of the chemiluminescence accumulated up to each time interval. The output from the luminometer instrument was expressed as R.L.U.s (Relative Light Units).

[2] = Chemiluminescence measurement of anti-TSH antibody conjugate of acridinium ester 3b with cationic surfactants; conditions: for Observed enhancement (fold) of chemiluminescence: no surfactant control = 1; for Observed acceleration of emission kinetics (time to >90% emission): without surfactant 49.5 seconds
Experimental: as §1, §2

[3] = Chemiluminescence measurement of anti-TSH antibody conjugate of acridinium ester 3c with cationic surfactants; conditions: for Observed enhancement (fold) of chemiluminescence: no surfactant control = 1; for Observed acceleration of emission kinetics (time to >90% emission): without surfactant 62.5 seconds
Experimental: as §1, §2

[4] = cited from earlier work
[5] = Stability of surfactants in Reagent 1 (0.5% peroxide in 0.1 M nitric acid) on storage; type: physicochemical; conditions: for stability in Reagent 1: 0.5% peroxide in 0.1 M nitric acid, 80 days at room temperature, little loss in ability to enhance chemiluminescence; for ability to accelerate light emission after storage: 80 days of storage at room temperature
Experimental: as §1
For example, for all three acridinium ester conjugates, in comparison to the no surfactant control which was assigned a relative light yield of one, total light yield was increased approximately 2.5-4-fold for 3a, 3-5-fold for 3b and 3-4.5-fold for 3c (Tables 1a, 2a and 3a) for CTAC as well as surfactants 1 and 2. […] Even at day 80, the fold of increased light emission using surfactant 2 remains to be about 80% (2.8/3.5) of CTAC. Similarly, the fold of increased light emission using Surfactant 1 is about 89% (3.1/3.5) on day 1, and 74% (2.6/3.5) on day 80 compared to CTAC.
Furthermore, both surfactants 1 and 2 were very effective in accelerating light emission from the acridinium ester antibody conjugates (Tables 1b, 2b and 3b, FIGS. 5-7). […] In the presence of CTAC or the two cationic surfactants 1 and 2, emission times were compressed to <3 seconds for the conjugates of all three acridinium ester labels.

Structure (SMILES) | Observed enhancement (fold) of chemiluminescence ([1]; Day 1) [fold] | Observed acceleration of emission kinetics (time to >90% emission) ([1]; Day 1) [s] | Observed enhancement (fold) of chemiluminescence ([1]; Day 10) [fold] | Observed acceleration of emission kinetics (time to >90% emission) ([1]; Day 10) [s] | Observed enhancement (fold) of chemiluminescence ([1]; Day 20) [fold] | Observed acceleration of emission kinetics (time to >90% emission) ([1]; Day 20) [s] | Observed enhancement (fold) of chemiluminescence ([1]; Day 40) [fold] | Observed acceleration of emission kinetics (time to >90% emission) ([1]; Day 40) [s] | Observed enhancement (fold) of chemiluminescence ([1]; Day 80) [fold] | Observed acceleration of emission kinetics (time to >90% emission) ([1]; Day 80) [s] | accelerated emission kinetics [1] [s] | Observed enhancement (fold) of chemiluminescence ([2]; Day 1) [fold] | Observed acceleration of emission kinetics (time to >90% emission) ([2]; Day 1) [s] | Observed enhancement (fold) of chemiluminescence ([2]; Day 10) [fold] | Observed acceleration of emission kinetics (time to >90% emission) ([2]; Day 10) [s] | Observed enhancement (fold) of chemiluminescence ([2]; Day 20) [fold] | Observed acceleration of emission kinetics (time to >90% emission) ([2]; Day 20) [s] | Observed enhancement (fold) of chemiluminescence ([2]; Day 40) [fold] | Observed acceleration of emission kinetics (time to >90% emission) ([2]; Day 40) [s] | Observed enhancement (fold) of chemiluminescence ([2]; Day 80) [fold] | further results
CCCCCCCCCCCCCCCC[N+](C)(C)C.[Cl-] [CTAC, cetyltrimethylammonium chloride, reference compound] | 3.5 | 1.5 | 3.6 | 1.5 | 4.0 | 1.5 | 3.4 | 1.5 | 3.5 | 1.5 | 1.5 | 5.3 | 1.0 | 5.2 | 1.0 | 5.5 | 1.0 | 4.2 | 1.0 | 4.6 | Observed acceleration of emission kinetics (time to >90% emission) ([2]; Day 80): 1.0 s; Observed enhancement (fold) of chemiluminescence ([3]; Day 1): 4.1 fold; Observed acceleration of emission kinetics (time to >90% emission) ([3]; Day 1): 2.0 s; Observed enhancement (fold) of chemiluminescence ([3]; Day 10): 4.3 fold; Observed acceleration of emission kinetics (time to >90% emission) ([3]; Day 10): 2.0 s; Observed enhancement (fold) of chemiluminescence ([3]; Day 20): 4.6 fold; Observed acceleration of emission kinetics (time to >90% emission) ([3]; Day 20): 2.5 s; Observed enhancement (fold) of chemiluminescence ([3]; Day 40): 3.9 fold; Observed acceleration of emission kinetics (time to >90% emission) ([3]; Day 40): 2.5 s; Observed enhancement (fold) of chemiluminescence ([3]; Day 80): 4.0 fold; Observed acceleration of emission kinetics (time to >90% emission) ([3]; Day 80): 2.5 s; increase of overall light output ([4]; acridinium ester labels and their conjugates): 3-4 fold; emission time of the labels ([4]; compressed from approximately 60 s, 7 mM CTAC in 0.25 M sodium hydroxide): < 5 s
CCCCCCCCCCCCCCCC(=O)NCC[N+](C)(C)C [surfactant 1] | 3.1 | 1.0 | 3.1 | 1.0 | 3.4 | 1.0 | 2.6 | 1.0 | 2.6 | 1.0 | 1.0 | 4.5 | 1.0 | 4.4 | 0.5 | 4.7 | 0.5 | 3.4 | 0.5 | 3.4 | fold of increased light emission compared to CTAC ([1]; day 1): about 89%; fold of increased light emission compared to CTAC ([1]; day 80): ~74%; Observed acceleration of emission kinetics (time to >90% emission) ([2]; Day 80): 0.5 s; Observed enhancement (fold) of chemiluminescence ([3]; Day 1): 3.8 fold; Observed acceleration of emission kinetics (time to >90% emission) ([3]; Day 1): 2.0 s; Observed enhancement (fold) of chemiluminescence ([3]; Day 10): 3.8 fold; Observed acceleration of emission kinetics (time to >90% emission) ([3]; Day 10): 2.0 s; Observed enhancement (fold) of chemiluminescence ([3]; Day 20): 4.1 fold; Observed acceleration of emission kinetics (time to >90% emission) ([3]; Day 20): 2.0 s; Observed enhancement (fold) of chemiluminescence ([3]; Day 40): 3.2 fold; Observed acceleration of emission kinetics (time to >90% emission) ([3]; Day 40): 2.0 s; Observed enhancement (fold) of chemiluminescence ([3]; Day 80): 3.0 fold; Observed acceleration of emission kinetics (time to >90% emission) ([3]; Day 80): 2.0 s; stability in Reagent 1 [5]: quite stable; ability to accelerate light emission after storage [5]: did not diminish
CCCCCCCCCCCCOC(=O)OCCCC[N+](C)(C)C [surfactant 2] | 3.5 | 1.0 | 3.6 | 1.0 | 3.7 | 1.0 | 3.2 | 1.0 | 2.8 | 1.0 | 1.0 | 5.0 | 0.5 | 5.2 | 0.5 | 5.2 | 0.5 | 3.9 | 0.5 | 4.1 | fold of increased light emission compared to CTAC ([1]; day 80): about 80%; effectiveness in enhancing chemiluminescence relative to CTAC ([1]; within at least the first 10 days (Table 1a)): as effective as CTAC; Observed acceleration of emission kinetics (time to >90% emission) ([2]; Day 80): 0.5 s; Observed enhancement (fold) of chemiluminescence ([3]; Day 1): 4.2 fold; Observed acceleration of emission kinetics (time to >90% emission) ([3]; Day 1): 1.0 s; Observed enhancement (fold) of chemiluminescence ([3]; Day 10): 4.2 fold; Observed acceleration of emission kinetics (time to >90% emission) ([3]; Day 10): 1.0 s; Observed enhancement (fold) of chemiluminescence ([3]; Day 20): 4.4 fold; Observed acceleration of emission kinetics (time to >90% emission) ([3]; Day 20): 1.5 s; Observed enhancement (fold) of chemiluminescence ([3]; Day 40): 3.7 fold; Observed acceleration of emission kinetics (time to >90% emission) ([3]; Day 40): 1.5 s; Observed enhancement (fold) of chemiluminescence ([3]; Day 80): 3.5 fold; Observed acceleration of emission kinetics (time to >90% emission) ([3]; Day 80): 1.5 s; stability in Reagent 1 [5]: quite stable; ability to accelerate light emission after storage [5]: did not diminish

Source: US10859504B2, “Degradable cationic surfactants and use thereof in enhancing chemiluminescence” (Siemens Healthcare Diagnostics Inc., priority 2013, dated 2020)
